# Test results: patent US20220153741A1, “HETEROCYCLIC COMPOUNDS AS INHIBITORS OF KRAS G12C” (Guangdong Newopp Biopharmaceuticals Co., Ltd., priority 2019, published 2022)
# How the values were obtained:
# [1] = from CC(C)c1nccc(CCC(=O)O)c1-n1c(=O)[nH]c(=O)c2cc(F)c(-c3c(N)cccc3Cl)nc21; amide bond; T3P; DCE; 39.3 mM; 50.0 °C; 1.0 h
# [2] = from CC(C)c1nccc(CCC(=O)O)c1-n1c(=O)[nH]c(=O)c2cc(F)c(-c3c(N)cccc3Cl)nc21; amide bond; 12-membered ring; T3P; DCE; 39.3 mM; 50.0 °C
smiles,measurement,setting,value
CC(C)c1nccc2c1-n1c(=O)[nH]c(=O)c3cc(F)c(nc31)-c1c(Cl)cccc1NC(=O)CC2,"ring closure, yield of all isomers",[1],29%
same,"ring closure, isolated yield",[2],29%
